Tests used:
IRAK4 = target: T1, IRAK4 (Homo sapiens, UniProt Q9NWZ3); assay: biochemical; details: read-out: % enzyme activity, 1 μM; Run 1, Run 2
T1 sequence (Q9NWZ3 1-460): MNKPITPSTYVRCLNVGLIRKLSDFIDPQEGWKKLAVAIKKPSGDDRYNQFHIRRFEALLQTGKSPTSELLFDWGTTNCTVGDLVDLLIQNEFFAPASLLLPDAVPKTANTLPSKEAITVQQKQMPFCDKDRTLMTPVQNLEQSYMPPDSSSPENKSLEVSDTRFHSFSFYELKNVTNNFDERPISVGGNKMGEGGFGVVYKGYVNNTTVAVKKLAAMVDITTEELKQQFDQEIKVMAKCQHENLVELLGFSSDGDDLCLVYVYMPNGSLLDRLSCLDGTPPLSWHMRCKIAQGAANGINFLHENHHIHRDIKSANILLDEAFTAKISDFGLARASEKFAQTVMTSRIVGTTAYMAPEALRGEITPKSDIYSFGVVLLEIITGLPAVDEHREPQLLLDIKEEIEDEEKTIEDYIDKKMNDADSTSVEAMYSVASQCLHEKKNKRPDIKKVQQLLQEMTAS

LATS2 = target: T2, LATS2 (Homo sapiens, UniProt Q9NRM7); assay: biochemical; details: read-out: % enzyme activity, 1 μM; Run 1, Run 2
T2 sequence (Q9NRM7 1-1088): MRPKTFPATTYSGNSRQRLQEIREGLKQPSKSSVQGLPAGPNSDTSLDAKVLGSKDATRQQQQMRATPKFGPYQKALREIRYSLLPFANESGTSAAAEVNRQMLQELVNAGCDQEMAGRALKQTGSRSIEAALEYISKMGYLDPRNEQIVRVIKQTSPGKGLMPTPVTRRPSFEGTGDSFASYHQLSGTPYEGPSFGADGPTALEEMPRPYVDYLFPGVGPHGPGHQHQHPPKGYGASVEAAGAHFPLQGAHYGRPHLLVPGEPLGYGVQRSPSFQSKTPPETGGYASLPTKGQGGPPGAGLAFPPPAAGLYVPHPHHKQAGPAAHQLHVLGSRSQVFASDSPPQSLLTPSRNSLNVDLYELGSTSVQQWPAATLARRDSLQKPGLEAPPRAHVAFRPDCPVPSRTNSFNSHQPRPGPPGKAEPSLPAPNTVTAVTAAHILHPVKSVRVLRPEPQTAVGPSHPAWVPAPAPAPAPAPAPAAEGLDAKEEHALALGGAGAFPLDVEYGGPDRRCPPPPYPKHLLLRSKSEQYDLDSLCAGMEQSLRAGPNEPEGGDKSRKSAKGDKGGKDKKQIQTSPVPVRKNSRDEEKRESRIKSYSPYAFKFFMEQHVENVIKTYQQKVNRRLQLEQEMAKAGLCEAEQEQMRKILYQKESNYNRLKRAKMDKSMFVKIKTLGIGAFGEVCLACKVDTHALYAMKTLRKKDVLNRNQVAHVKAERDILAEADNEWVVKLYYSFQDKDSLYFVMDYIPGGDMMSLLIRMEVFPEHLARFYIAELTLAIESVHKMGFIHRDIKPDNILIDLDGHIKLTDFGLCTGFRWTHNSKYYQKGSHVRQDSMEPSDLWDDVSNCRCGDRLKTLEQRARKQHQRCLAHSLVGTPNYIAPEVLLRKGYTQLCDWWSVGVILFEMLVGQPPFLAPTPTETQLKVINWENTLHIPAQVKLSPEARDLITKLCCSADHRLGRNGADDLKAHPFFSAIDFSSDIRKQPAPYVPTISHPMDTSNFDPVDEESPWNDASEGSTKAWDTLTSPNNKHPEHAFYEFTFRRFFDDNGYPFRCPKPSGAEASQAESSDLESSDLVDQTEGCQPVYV

c-MER = target: T3, c-MER (Homo sapiens, UniProt Q12866); details: 1 μM; Run 1, Run 2
T3 sequence (Q12866 21-999): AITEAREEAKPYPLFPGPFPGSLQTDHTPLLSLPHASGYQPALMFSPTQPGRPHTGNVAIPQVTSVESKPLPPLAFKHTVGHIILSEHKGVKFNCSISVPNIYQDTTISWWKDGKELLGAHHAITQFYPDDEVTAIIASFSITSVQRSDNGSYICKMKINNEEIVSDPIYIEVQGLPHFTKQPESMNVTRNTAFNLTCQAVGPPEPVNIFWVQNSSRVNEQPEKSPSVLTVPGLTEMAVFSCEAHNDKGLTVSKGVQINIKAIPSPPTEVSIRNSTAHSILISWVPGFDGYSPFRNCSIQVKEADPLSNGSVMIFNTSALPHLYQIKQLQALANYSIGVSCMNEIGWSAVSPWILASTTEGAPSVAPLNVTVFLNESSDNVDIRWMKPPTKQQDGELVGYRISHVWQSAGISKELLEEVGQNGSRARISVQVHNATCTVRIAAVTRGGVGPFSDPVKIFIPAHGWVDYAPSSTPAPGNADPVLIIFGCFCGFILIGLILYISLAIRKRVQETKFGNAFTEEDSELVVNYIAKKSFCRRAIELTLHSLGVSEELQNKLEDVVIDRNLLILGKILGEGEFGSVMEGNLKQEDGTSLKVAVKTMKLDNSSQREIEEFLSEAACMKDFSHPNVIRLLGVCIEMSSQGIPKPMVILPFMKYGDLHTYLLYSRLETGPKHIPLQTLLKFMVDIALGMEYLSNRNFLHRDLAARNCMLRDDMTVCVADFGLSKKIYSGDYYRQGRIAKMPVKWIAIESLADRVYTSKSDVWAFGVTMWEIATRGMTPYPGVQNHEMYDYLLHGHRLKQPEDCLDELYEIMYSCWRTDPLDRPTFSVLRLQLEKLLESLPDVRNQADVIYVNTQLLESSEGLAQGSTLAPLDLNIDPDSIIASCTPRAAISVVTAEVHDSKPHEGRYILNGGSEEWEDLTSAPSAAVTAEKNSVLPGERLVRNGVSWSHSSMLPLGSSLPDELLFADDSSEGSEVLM

PKCg = PKCg (Homo sapiens, UniProt P05129); details: 1 μM; Run 1, Run 2
PLK2 = PLK2 (Homo sapiens, UniProt Q9NYY3); assay: biochemical; details: read-out: % enzyme activity, 1 μM; Run 1, Run 2
STK32B/YANK2 = STK32B/YANK2 (Homo sapiens, UniProt Q9NY57); assay: biochemical; details: read-out: % enzyme activity, 1 μM; Run 1, Run 2
Sequence of STK32B/YANK2 (Q9NY57 whole entry): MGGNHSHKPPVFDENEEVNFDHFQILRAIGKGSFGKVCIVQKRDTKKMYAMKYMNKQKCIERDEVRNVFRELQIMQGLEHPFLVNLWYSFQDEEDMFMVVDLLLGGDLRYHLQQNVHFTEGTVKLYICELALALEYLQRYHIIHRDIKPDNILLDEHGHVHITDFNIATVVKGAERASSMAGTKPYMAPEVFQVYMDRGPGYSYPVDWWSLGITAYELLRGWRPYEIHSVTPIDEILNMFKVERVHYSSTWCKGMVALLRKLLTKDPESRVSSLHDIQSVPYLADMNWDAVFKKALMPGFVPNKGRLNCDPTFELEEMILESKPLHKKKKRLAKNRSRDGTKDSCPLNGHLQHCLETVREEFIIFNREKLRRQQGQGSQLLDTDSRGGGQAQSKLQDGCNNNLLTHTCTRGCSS

Sequence of PLK2 (Q9NYY3 whole entry): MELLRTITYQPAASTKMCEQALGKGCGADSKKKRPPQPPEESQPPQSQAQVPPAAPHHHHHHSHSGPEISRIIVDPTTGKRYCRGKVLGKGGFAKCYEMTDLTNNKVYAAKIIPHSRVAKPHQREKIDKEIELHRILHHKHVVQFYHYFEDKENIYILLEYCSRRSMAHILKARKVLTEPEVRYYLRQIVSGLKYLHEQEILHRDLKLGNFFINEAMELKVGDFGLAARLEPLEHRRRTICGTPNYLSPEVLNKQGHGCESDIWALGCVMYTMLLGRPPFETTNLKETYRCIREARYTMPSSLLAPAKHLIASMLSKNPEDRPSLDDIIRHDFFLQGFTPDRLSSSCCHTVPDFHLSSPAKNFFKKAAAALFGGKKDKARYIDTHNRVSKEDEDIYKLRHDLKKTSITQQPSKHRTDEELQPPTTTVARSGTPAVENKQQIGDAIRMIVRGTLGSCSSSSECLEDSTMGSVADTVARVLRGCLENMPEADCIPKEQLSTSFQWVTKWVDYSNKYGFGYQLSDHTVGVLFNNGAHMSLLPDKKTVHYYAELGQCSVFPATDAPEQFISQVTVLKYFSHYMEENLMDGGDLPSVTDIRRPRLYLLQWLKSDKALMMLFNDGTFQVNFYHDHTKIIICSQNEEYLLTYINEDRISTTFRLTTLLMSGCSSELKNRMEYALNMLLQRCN

| Compound | remaining activity at 1 µM (IRAK4) | remaining activity at 1 µM (LATS2) | % enzyme activity (c-MER) | % enzyme activity (PKCg) | remaining activity at 1 µM (PLK2) | remaining activity at 1 µM (STK32B/YANK2) |
| --- | --- | --- | --- | --- | --- | --- |
| COc1cc(-c2cncc(-c3ccc(N4CCN(C)CC4)cc3)c2C)cc(F)c1C(N)=O [Compound 26a, 2-Fluoro-6-methoxy-4-(4-methyl-5-(4-(4-methylpiperazin-1-yl)phenyl)pyridin-3-yl)benzamide] | 78.5% | 106% | 99.93% | 96.27% | 98.8% | 87.6% |
| COc1cc(-c2cncc(-c3ccc(N4C[C@@H](C)N(C)[C@@H](C)C4)cc3)c2C)cc(F)c1C(N)=O [Compound 26c, 2-Fluoro-6-methoxy-4-(4-methyl-5-(4-((3R,5S)-3,4,5-trimethylpiperazin-1-yl)phenyl)pyridin-3-yl)benzamide] | 84.9% | 102% | 96.34% | 96.41% | 103% | 98.2% |

— paper PMC8213057, “Targeting ALK2: An Open Science Approach to Developing Therapeutics for the Treatment of Diffuse Intrinsic Pontine Glioma” (Journal of Medicinal Chemistry, 2020)
